Source: US20100160351A1, “PHARMACEUTICAL COMPOSITIONS AND METHODS FOR TREATING HYPERURICEMIA AND RELATED DISORDERS” (NUON THERAPEUTICS, INC., priority 2008, published 2010)

Columns and labels:
[1] = tested on: monosodium urate (MSU) crystal-induced air pouch inflammation; assay: Air Pouch Model 1: MSU crystal air pouch, rodent model of gout; format: in vivo, male Sprague-Dawley rats; details: for Average Exudate Volume / Average Plasma Extravasation, OD620 nm / Total WBC in Sample / WBC: +MSU, 4 h
Procedure: (§1) The objective of this study was to evaluate the anti-inflammatory affects of tranilast versus a clinically active treatment for gout, colchicine, as well as a clinically active non-steroidal antiinflammatory drug, indomethacin. This evaluation was carried out in male Sprague-Dawley rats in a rodent model of gout. The animals were injected subcutaneously with 20 ml of sterile air, followed three days later by a supplemental injection with 20 ml of sterile air. Six days after the initial sterile air injection, the rats were injected intravenously with Evan's Blue and pretreated for thirty minutes with either a subcutaneous injection of colchicine (1 mg/kg) or indomethacin (5 mg/kg) or oral administration with either 200 mg/kg or 400 mg/kg of tranilast. After the pretreatment period, the rats were injected with 150 mg of monosodium urate (MSU) crystals (10 mg·ml) into the air pouch. Four hours later, the air pouch was injected with 5 ml heparinized saline and the entire contents of the air pouch removed, recording the total volume. The air pouch contents were evaluated for plasma extravasation and total white blood cell (WBC) count.
On day 0 the rats were anesthetized in a biological cabinet, the nape of the neck was cleansed with 70% isopropanol followed by iodine tincture (VEDCO, lot L021976). Twenty ml sterile (0.22 μm, Fisher Scientific, Cat. 09-720-3, lot R5SN25683) air was injected subcutaneously using a 23 G×2 inch needle fixed to a 20 ml syringe. The rats were returned to routine housing. No adverse reactions were observed.
(§2) On day 3 the rats were anesthetized in a biological cabinet, the nape of the neck was cleansed with 70% isopropanol followed by iodine tincture (VEDCO, lot L021976). Twenty ml sterile (0.22 μm, Fisher Scientific, Cat. 09-720-3, lot R5SN25683) air was injected subcutaneously using a 23 G×2 inch needle fixed to a 20 ml syringe. The rats were returned to routine housing. No adverse reactions were observed.
On day 6 the rats were weighed (Mettler, Model PE3000, SN: F69474) and sorted into six treatment groups of ten animals each, based upon average weight. The animals were either dosed subcutaneously with 1 ml/kg colchicine or indomethacin, or orally with either 4 ml/kg or 8 ml/kg tranilast, or 8 ml/kg vehicle. Immediately after test material administration, the rats were intravenously injected with 2 ml/kg Evans Blue.
Thirty minutes after test material administration, the rats were anesthetized and five groups were injected into the air pouch with 15 ml MSU using an 18 G×1 inch needle fitted to a 20 ml syringe. The sixth group was injected with 15 ml saline. The rats were returned to their cages, no adverse affects were observed.
(§3) Four hours after MSU injection, the rats were anesthetized and 5 ml 10 U/ml heparinized saline was injected into the air pouch. The air pouch was gently massaged, the contents immediately removed using a 14 G×1 inch needle fitted to a 6 ml syringe, and the exudate volume recorded. An aliquot of the exudate was transferred to heparin-treated microtainer tubes (Becton Dickinson, Cat. 365958, lot 8093666, exp. June 09) for white blood cell (WBC) counting. The remainder of the exudate was centrifuged (Hermle Labrotechnik, Model Z200A, SN: 44060036), the supernatants removed and evaluated at OD620nm (Spectronic Unicam, Model 4000 1/4, SN: 3SGD003006) for plasma extravasation.

[2] = tested on: monosodium urate (MSU) crystal-induced air pouch inflammation; assay: Air Pouch Model 2: MSU crystal air pouch, rodent model of gout; format: in vivo, male Sprague-Dawley rats; details: for Average Exudate Volume, Mean / Average Plasma Extravasation, OD620 nm, Mean / Total WBC in Sample, Mean / WBC in exudate, Mean: 4 h after MSU
Procedure: as §1, with “potency” for “affects”, “Tranilast.” for “tranilast versus a clinically active treatment for gout, colchicine, as well as a clinically active non-steroidal antiinflammatory drug, indomethacin.”, “with” for “with either a subcutaneous injection of colchicine (1 mg/kg) or indomethacin (5 mg/kg) or”, “of 25 mg/kg, 50 mg/kg, 100 mg/kg or” for “with either”, “mg/kg” for “mg/kg or 400 mg/kg of”, “mg/ml)” for “mg·ml)”
On day 0 the rats were anesthetized in a biological cabinet, the nape of the neck was cleansed with 70% isopropanol followed by iodine tincture (VEDCO, lot L021976). Twenty ml sterile (0.22 μm, Millipore, Cat. SLGSV255F, lot R8J1494130, exp July 2011) air was injected subcutaneously using a 23 G×2 inch needle fixed to a 20 ml syringe. The rats were returned to routine housing. No adverse reactions were observed.
as §2
On day 6 the rats were weighed (Mettler, Model PE3000, SN: F69474) and injected intravenously injected with 2 ml/kg Evans Blue. The animals were dosed orally with 0.5 ml/kg, 1 ml/kg, 2; ml/kg or 4 ml/kg tranilast, or 4 ml/kg vehicle.
Thirty minutes after test material administration, the rats were anesthetized and five groups (2-6) were injected into the air pouch with 15 ml MSU using a 19 G×2 inch needle fitted to a 20 ml syringe. Group 1 was injected with 15 ml saline. The rats were returned to their cages, no adverse affects were observed.
as §3, with “MSU/saline” for “MSU”, “9140110, expo July 2010)” for “8093666, exp. June 09)”

[3] = Group 4: tranilast 200 mg/kg oral
[4] = Group 5: tranilast 400 mg/kg oral
[5] = oral tranilast 30 min before MSU, regardless of dose (200 or 400 mg/kg)
[6] = 25 mg/kg oral, 30 min before MSU
[7] = 50 mg/kg oral, 30 min before MSU
[8] = 100 mg/kg oral, 30 min before MSU
[9] = 200 mg/kg oral, 30 min before MSU
[10] = highest dose 200 mg/kg oral, 30 min before MSU
[11] = oral, sigmoidal dose-response (variable slope) analysis

With COc1ccc(/C=C/C(=O)Nc2ccccc2C(=O)O)cc1OC [Tranilast, 2-[[3-(3,4-dimethoxyphenyl)-1-oxo-2-propenyl]amino]benzoic acid] the “Average Exudate Volume” value [1, 3] was 6.5 mL, the “Average Plasma Extravasation, OD620 nm” value [1, 3] was 0.697 and the “Total WBC in Sample” value [1, 3] was 15925556. For the same molecule, the WBC [1, 3] was 2524444 cells/ml, the “Average Exudate Volume” value [1, 4] was 5.3 mL and the “Average Plasma Extravasation, OD620 nm” value [1, 4] was 0.626. For the same molecule, the “Total WBC in Sample” value [1, 4] was 15162222, the WBC [1, 4] was 3144444 cells/ml and the “inhibition of plasma extravasation” value [1, 5] was 60%. For the same molecule, the “inhibition of white blood cell infiltration” value [1, 5] was 95%, the “Average Exudate Volume, Mean” value [2, 6] was 6.5 mL and the “Average Plasma Extravasation, OD620 nm, Mean” value [2, 6] was 1.431. The “Total WBC in Sample, Mean” value [2, 6] was 20550000, the “WBC in exudate, Mean” value [2, 6] was 3196000 cells/ml and the “Average Exudate Volume, Mean” value [2, 7] was 8.6 mL. For the same molecule, the “Average Plasma Extravasation, OD620 nm, Mean” value [2, 7] was 1.048, the “Total WBC in Sample, Mean” value [2, 7] was 12476000 and the “WBC in exudate, Mean” value [2, 7] was 1557000 cells/ml. For the same molecule, the “Average Exudate Volume, Mean” value [2, 8] was 8.0 mL, the “Average Plasma Extravasation, OD620 nm, Mean” value [2, 8] was 0.939 and the “Total WBC in Sample, Mean” value [2, 8] was 10629600. For the same molecule, the “WBC in exudate, Mean” value [2, 8] was 1566000 cells/ml, the “Average Exudate Volume, Mean” value [2, 9] was 3.2 mL and the “Average Plasma Extravasation, OD620 nm, Mean” value [2, 9] was 0.819. The “Total WBC in Sample, Mean” value [2, 9] was 10305200, the “WBC in exudate, Mean” value [2, 9] was 3516000 cells/ml and the “inhibition of plasma extravasation” value [2, 10] was 42%. For the same molecule, the “inhibition of white blood cell infiltration” value [2, 10] was 80%, the “effect on MSU-induced parameters (plasma extravasation, leukocyte infiltration)” value ([2]; oral 25-200 mg/kg, 30 min before MSU) was “dose-dependent inhibition” and the “IC50 effect on plasma extravasation” value [2, 11] was 45 mg/kg. For the same molecule, the “IC50 effect on white blood cell infiltration” value [2, 11] was 16 mg/kg.
